The record followed here is patent EP4603105A1, “PHARMACEUTICAL COMPOSITION CONTAINING CYCLIC COMPOUND HAVING SELECTIVE KRAS INHIBITORY EFFECT AGAINST HRAS AND NRAS” (CHUGAI SEIYAKU KABUSHIKI KAISHA, priority 2022, dated 2024).

Test [1] relates to human lung cancer strain NCI-H441. The experiment in a line: NCI-H441 cell proliferation inhibitory activity (CellTiter-Glo, 4 days). Format: cell-based. As to conditions: NCI-H441 cells, 4 days, read-out: NCl-H441 IC50. Put shortly:
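Step one: dispense the test compound in serial DMSO dilutions. Step three: add the reagent and measure […].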
Background: Cellular ATP, detected with luciferase, serves as a proxy for viable cell number.

The target in the next test is HRAS wild-type protein (Homo sapiens, UniProt P01112). The experiment in a line: Binding to HRAS by surface plasmon resonance (SPR), KD and KD ratio to KRAS. As to conditions: ratio of KD for HRAS wild-type protein to KD for KRAS. The method in brief: (§1)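 Running buffer contained 10 µM GDP and 10 mM MgCl2 to keep RAS in the GDP state, with 4% DMSO at pH 7.4. Compounds were flowed at 100 µL/min in 75 s steps of rising concentration over captured biotin-Avi RAS at 30°C. Sensorgrams were fitted 1:1 for KD.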
Sequence of HRAS wild-type protein (P01112 whole entry): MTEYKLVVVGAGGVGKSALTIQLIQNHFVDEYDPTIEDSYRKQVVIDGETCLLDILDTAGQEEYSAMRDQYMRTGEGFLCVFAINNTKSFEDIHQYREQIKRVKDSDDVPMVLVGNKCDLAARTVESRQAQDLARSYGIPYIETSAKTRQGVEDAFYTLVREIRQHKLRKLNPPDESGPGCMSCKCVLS
(In general: Surface plasmon resonance follows binding to a sensor surface in real time, without labels.)

The target of test [2] is GDP-bound NRAS wild-type protein (Homo sapiens, UniProt P01111). The experiment in a line: Binding to NRAS by surface plasmon resonance (SPR), KD and KD ratio to KRAS. As to conditions: ratio of KD for GDP-bound NRAS wild-type protein to KD for KRAS. The method in brief:
as §1

The target in test [3] is GDP-bound KRAS wild-type protein (Homo sapiens, UniProt P01116). The experiment in a line: Binding to KRAS by surface plasmon resonance (SPR), dissociation constant KD. As to conditions: Single Cycle Kinetics. Put shortly:
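Measured at 30°C: SPR with GDP-loaded, E. coli-expressed biotin-Avi RAS captured (~100–300 RU), ascending 75 s compound injections, HBS pH 7.4 with GDP, MgCl2, 4% DMSO. KD from 1:1 fit.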

SMILES strings stand for the structures.

Sequence of GDP-bound NRAS wild-type protein (P01111 whole entry): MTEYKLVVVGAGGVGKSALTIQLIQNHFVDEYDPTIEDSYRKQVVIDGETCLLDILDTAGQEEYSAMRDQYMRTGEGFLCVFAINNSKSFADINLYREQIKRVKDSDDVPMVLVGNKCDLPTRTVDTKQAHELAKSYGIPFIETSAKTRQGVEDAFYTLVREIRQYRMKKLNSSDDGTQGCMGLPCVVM
Sequence of GDP-bound KRAS wild-type protein (P01116 1-188 isoform P01116-2): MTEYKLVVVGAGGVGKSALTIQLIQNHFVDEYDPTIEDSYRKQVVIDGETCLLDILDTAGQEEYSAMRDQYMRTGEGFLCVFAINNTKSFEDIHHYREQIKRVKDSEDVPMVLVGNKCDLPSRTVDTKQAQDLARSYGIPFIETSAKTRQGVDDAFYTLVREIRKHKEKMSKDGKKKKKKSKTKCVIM

For the molecule `CCC[C@@H]1NC(=O)C[C@@H](C(=O)N(C)C)N(C)C(=O)[C@H](C2CCCC2)N(C)C(=O)C2(CC(C)(C)C2)NC(=O)[C@@H]2C[C@@H](OCC)CN2C(=O)[C@H](CCc2ccc(C(F)(F)F)c(Cl)c2)NC(=O)CN(C)C(=O)[C@H](Cc2ccc(C(F)(F)F)cc2)N2CC/C=C\C[C@@H](C2=O)N(C)C(=O)CN(C)C(=O)[C@H]([C@@H](C)CC)NC1=O` [PP3454], in test [1], the IC50 – broadly, the concentration that inhibits the measured activity by half – came to 26.2 nM. In addition, the “HRAS /KRAS” value at HRAS wild-type protein is “A (a compound having 10 or more and less than 20 is denoted as A)”. In test [2], the “NRAS /KRAS” value was “A (a compound having 10 or more and less than 20 is denoted as A)”. Further, the affinity in test [3], expressed as Kd, was 0.3 nM.
`CCO[C@@H]1C[C@H]2C(=O)NC3(CC(C)(C)C3)C(=O)N(C)[C@@H](C3CCCC3)C(=O)N(C)[C@H](C(=O)N(C)C)CC(=O)N[C@@H](CC(C)C)C(=O)N[C@@H]([C@@H](C)CC)C(=O)N(C)CC(=O)N(C)[C@H]3C/C=C\CCN(C3=O)[C@@H](Cc3ccc(C(F)(F)F)cc3)C(=O)N(C)CC(=O)N[C@@H](CCc3cc(F)c(C(F)(F)F)c(F)c3)C(=O)N2C1` [PP3455]: the IC50 in test [1] came out at 15 nM. In addition, at HRAS wild-type protein, the “HRAS /KRAS” value is “A (a compound having 10 or more and less than 20 is denoted as A)”. Moreover, in test [2], the “NRAS /KRAS” value is “A (a compound having 10 or more and less than 20 is denoted as A)”. Besides, the Kd (in general, the free concentration of one partner at which half of the binding sites on the other are occupied at equilibrium, for simple one-to-one binding) in test [3] came to 0.11 nM.
`CCCC[C@@H]1NC(=O)C[C@@H](C(=O)N(C)C)N(C)C(=O)[C@H](C2CCCC2)N(C)C(=O)C2(CC(C)(C)C2)NC(=O)[C@@H]2C[C@@H](OCC)CN2C(=O)[C@H](CCc2cc(F)c(C(F)(F)F)c(F)c2)NC(=O)CN(C)C(=O)[C@H](Cc2ccc(C(F)(F)F)cc2)N2CC/C=C\C[C@@H](C2=O)N(C)C(=O)CN(C)C(=O)[C@H]([C@@H](C)CC)NC1=O` [PP3456]: the IC50 in test [1] was determined as 16.4 nM. Moreover, at HRAS wild-type protein, the “HRAS /KRAS” value was “A (a compound having 10 or more and less than 20 is denoted as A)”. Besides, the “NRAS /KRAS” value in test [2] is “A (a compound having 10 or more and less than 20 is denoted as A)”. This molecule returned a Kd in test [3] of 0.2 nM.
For the molecule `CCC[C@@H]1NC(=O)C[C@@H](C(=O)N(C)C)N(C)C(=O)[C@H](C2CCCC2)N(C)C(=O)C2(CC(C)(C)C2)NC(=O)[C@@H]2C[C@@H](OCC)CN2C(=O)[C@H](CCc2cc(F)c(C(F)(F)F)c(F)c2)NC(=O)CN(C)C(=O)[C@H](Cc2ccc(C(F)(F)F)cc2)N2CC/C=C\C[C@@H](C2=O)N(C)C(=O)CN(C)C(=O)[C@H]([C@@H](C)CC)NC1=O` [PP3457], the IC50 in test [1] came out at 13.2 nM. Further, on HRAS wild-type protein, the “HRAS /KRAS” value was “A (a compound having 10 or more and less than 20 is denoted as A)”. Also, the “NRAS /KRAS” value in test [2] was “AA (a compound having 20 or more is denoted as AA)”. In addition, the Kd in test [3] is 0.16 nM.
In the case of `CCCO[C@@H]1C[C@H]2C(=O)NC3(CC(C)(C)C3)C(=O)N(C)[C@@H](C3CCCC3)C(=O)N(C)[C@H](C(=O)N(C)CC)CC(=O)N(C)[C@@H](COCC)C(=O)N[C@@H]([C@@H](C)CC)C(=O)N(C3CC3)CC(=O)N(C)[C@H]3C/C=C\CCN(C3=O)[C@@H](Cc3ccc(C)cc3)C(=O)N(C)CC(=O)N[C@@H](CCc3cc(F)c(C(F)(F)F)c(F)c3)C(=O)N2C1` [PP3458], the IC50 in test [1] stood at 28.8 nM. The “HRAS /KRAS” value on HRAS wild-type protein is “A (a compound having 10 or more and less than 20 is denoted as A)”. In test [2], the “NRAS /KRAS” value was “A (a compound having 10 or more and less than 20 is denoted as A)”. In test [3], the Kd worked out at 0.82 nM.
As for `CCCO[C@@H]1C[C@H]2C(=O)NC3(CC(C)(C)C3)C(=O)N(C)[C@@H](C3CCCC3)C(=O)N(C)[C@H](C(=O)N(C)CC)CC(=O)N(C)[C@@H](COCC)C(=O)N[C@@H]([C@@H](C)CC)C(=O)N3CCC[C@H]3C(=O)N(C)[C@H]3C/C=C\CCN(C3=O)[C@@H](Cc3ccc(C)cc3)C(=O)N(C)CC(=O)N[C@@H](CCc3cc(F)c(C(F)(F)F)c(F)c3)C(=O)N2C1` [PP3459], the IC50 in test [1] is 40.2 nM. Moreover, on HRAS wild-type protein, the “HRAS /KRAS” value is “A (a compound having 10 or more and less than 20 is denoted as A)”. In addition, the “NRAS /KRAS” value in test [2] was “A (a compound having 10 or more and less than 20 is denoted as A)”. Also, the Kd in test [3] was 0.97 nM.
Consider `CCCO[C@@H]1C[C@H]2C(=O)NC3(CC(C)(C)C3)C(=O)N(C)[C@@H](C3CCCC3)C(=O)N(C)[C@H](C(=O)N(C)CC)CC(=O)N(C)[C@@H](COCC)C(=O)N[C@@H]([C@@H](C)CC)C(=O)N3C[C@@H](C)C[C@H]3C(=O)N(C)[C@H]3C/C=C\CCN(C3=O)[C@@H](Cc3ccc(C)cc3)C(=O)N(C)CC(=O)N[C@@H](CCc3cc(F)c(C(F)(F)F)c(F)c3)C(=O)N2C1` [PP3460], for which the IC50 in test [1] came out at 115 nM. Also, at HRAS wild-type protein, the “HRAS /KRAS” value is “A (a compound having 10 or more and less than 20 is denoted as A)”. For the same molecule, the “NRAS /KRAS” value in test [2] is “A (a compound having 10 or more and less than 20 is denoted as A)”. In test [3], this molecule displayed a Kd of 3.1 nM.
As for `CCCO[C@@H]1C[C@H]2C(=O)NC3(CC(C)(C)C3)C(=O)N(C)[C@@H](C3CCCC3)C(=O)N(C)[C@H](C(=O)N(C)CC)CC(=O)N(C)[C@@H](COCC)C(=O)N[C@@H]([C@@H](C)CC)C(=O)N3C[C@@H](F)C[C@H]3C(=O)N(C)[C@H]3C/C=C\CCN(C3=O)[C@@H](Cc3ccc(C)cc3)C(=O)N(C)CC(=O)N[C@@H](CCc3cc(F)c(C(F)(F)F)c(F)c3)C(=O)N2C1` [PP3461], the IC50 in test [1] was 19.1 nM. The “HRAS /KRAS” value on HRAS wild-type protein was “A (a compound having 10 or more and less than 20 is denoted as A)”. The “NRAS /KRAS” value in test [2] is “A (a compound having 10 or more and less than 20 is denoted as A)”. This molecule yielded a Kd in test [3] of 0.35 nM.
As to `CCCO[C@@H]1C[C@H]2C(=O)NC3(CC(C)(C)C3)C(=O)N(C)[C@@H](C3CCCC3)C(=O)N(C)[C@H](C(=O)N(C)CC)CC(=O)N(C)[C@@H](COCC)C(=O)N[C@@H]([C@@H](C)CC)C(=O)N(C3CC3)CC(=O)N(C)[C@H]3C/C=C\CCN(C3=O)[C@@H](Cc3ccc(C)cc3)C(=O)N(C)CC(=O)N[C@@H](CCc3ccc(C(F)(F)F)c(Cl)c3)C(=O)N2C1` [PP3462], the IC50 in test [1] was determined as 39.7 nM. The “HRAS /KRAS” value on HRAS wild-type protein was “A (a compound having 10 or more and less than 20 is denoted as A)”. The “NRAS /KRAS” value in test [2] is “AA (a compound having 20 or more is denoted as AA)”. The same molecule displayed a Kd in test [3] of 0.68 nM.
Regarding `CCCO[C@@H]1C[C@H]2C(=O)NC3(CC(C)(C)C3)C(=O)N(C)[C@@H](C3CCCC3)C(=O)N(C)[C@H](C(=O)N(C)CC)CC(=O)N(C)[C@@H](COCC)C(=O)N[C@@H]([C@@H](C)CC)C(=O)N3CCC[C@H]3C(=O)N(C)[C@H]3C/C=C\CCN(C3=O)[C@@H](Cc3ccc(C)cc3)C(=O)N(C)CC(=O)N[C@@H](CCc3ccc(C(F)(F)F)c(Cl)c3)C(=O)N2C1` [PP3463], the IC50 in test [1] turned out to be 50.4 nM. The “HRAS /KRAS” value on HRAS wild-type protein is “A (a compound having 10 or more and less than 20 is denoted as A)”. Further, the “NRAS /KRAS” value in test [2] is “A (a compound having 10 or more and less than 20 is denoted as A)”. In addition, the affinity in test [3], expressed as Kd, was 0.97 nM.
On to `CCCO[C@@H]1C[C@H]2C(=O)NC3(CC(C)(C)C3)C(=O)N(C)[C@@H](C3CCCC3)C(=O)N(C)[C@H](C(=O)N(C)CC)CC(=O)N(C)[C@@H](COCC)C(=O)N[C@@H]([C@@H](C)CC)C(=O)N3C[C@@H](C)C[C@H]3C(=O)N(C)[C@H]3C/C=C\CCN(C3=O)[C@@H](Cc3ccc(C)cc3)C(=O)N(C)CC(=O)N[C@@H](CCc3ccc(C(F)(F)F)c(Cl)c3)C(=O)N2C1` [PP3464], for which the IC50 in test [1] is 162 nM. Further, the “HRAS /KRAS” value at HRAS wild-type protein is “A (a compound having 10 or more and less than 20 is denoted as A)”. Further, in test [2], the “NRAS /KRAS” value is “A (a compound having 10 or more and less than 20 is denoted as A)”. Moreover, in test [3], the affinity, expressed as Kd, was 4 nM.
